As usually defined, the IC50 is the concentration at which inhibition is half-maximal.

The target of this experiment is T1, USP25 (USP25-His6, Boston Biochem E-546) (Homo sapiens, UniProt Q9UHP3).
T1 construct: His6; purchased Boston Biochem E-546
T1 sequence (Q9UHP3 1-1055): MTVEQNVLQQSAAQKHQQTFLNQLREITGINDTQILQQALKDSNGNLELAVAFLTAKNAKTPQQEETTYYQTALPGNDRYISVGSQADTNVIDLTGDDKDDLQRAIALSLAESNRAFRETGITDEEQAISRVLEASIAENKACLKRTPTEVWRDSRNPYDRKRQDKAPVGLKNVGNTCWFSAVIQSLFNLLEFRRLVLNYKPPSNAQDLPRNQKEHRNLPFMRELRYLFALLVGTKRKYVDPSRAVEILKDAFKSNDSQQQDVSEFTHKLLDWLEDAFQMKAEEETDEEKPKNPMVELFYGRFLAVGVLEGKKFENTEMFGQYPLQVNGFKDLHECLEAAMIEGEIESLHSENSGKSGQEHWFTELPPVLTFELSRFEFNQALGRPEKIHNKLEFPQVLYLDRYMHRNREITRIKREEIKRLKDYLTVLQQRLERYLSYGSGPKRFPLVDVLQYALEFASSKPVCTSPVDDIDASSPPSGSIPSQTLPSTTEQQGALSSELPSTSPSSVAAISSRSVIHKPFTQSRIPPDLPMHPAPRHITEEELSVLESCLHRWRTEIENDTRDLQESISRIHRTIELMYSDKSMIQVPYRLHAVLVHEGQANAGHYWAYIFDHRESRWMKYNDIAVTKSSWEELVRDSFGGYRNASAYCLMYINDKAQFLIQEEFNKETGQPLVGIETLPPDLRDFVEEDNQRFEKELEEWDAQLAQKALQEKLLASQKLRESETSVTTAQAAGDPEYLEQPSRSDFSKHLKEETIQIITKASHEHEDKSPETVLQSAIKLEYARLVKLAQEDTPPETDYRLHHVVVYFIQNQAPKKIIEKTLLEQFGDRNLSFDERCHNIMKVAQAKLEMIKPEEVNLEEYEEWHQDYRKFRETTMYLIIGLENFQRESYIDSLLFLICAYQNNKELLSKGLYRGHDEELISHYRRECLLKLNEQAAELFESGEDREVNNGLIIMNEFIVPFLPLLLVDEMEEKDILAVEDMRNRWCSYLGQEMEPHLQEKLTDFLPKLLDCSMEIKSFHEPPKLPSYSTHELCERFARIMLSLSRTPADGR
Put plainly: Ubiquitin-Rhodamine 110 Assay for USP25 Activity, Example A-2. The following applies: Ubiquitin-Rhodamine 110 assay, Example A-2; read-out: USP25 A-2 IC50 range. Format: biochemical. The procedure, abridged: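 Inhibition is quantified as IC50 by 4-parameter fit of fluorescence (485/535 nm) from Ub-Rh110 hydrolysis. Enzyme USP25-His6 at 75 pM with 30 min compound preincubation, then 25 nM substrate for 45 min at room temperature in pH 8.0 Tris buffer containing BME.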
For `Cc1ccc2c(N)c(C(=O)N[C@H]3COc4c(C#N)c(N5CC6CCC(C5)N6)cc(F)c4C3)sc2n1` [Example 95, 3-amino-N-[(3R)-8-cyano-7-{3,8-diazabicyclo[3.2.1]octan-3-yl}-5-fluoro-3,4-dihydro-2H-1-benzopyran-3-yl]-6-methylthieno[2,3-b]pyridine-2-carboxamide], the IC50 was 200 to 2000 nM.
Then `CCn1ccc2cc(C(=O)N[C@H]3CCc4cc(N5C[C@H](OC)[C@@H](N)C5)ccc4C3)nnc21` [Example 131, N-[(2S)-6-[(3S,4S)-3-amino-4-methoxypyrrolidin-1-yl]-1,2,3,4-tetrahydronaphthalen-2-yl]-7-ethyl-7H-pyrrolo[2,3-c]pyridazine-3-carboxamide], with more than 2000 nM.
Consider `Cc1ccc2c(N)c(C(=O)N[C@H]3COc4c(C#N)c(N5CC6CNCC(C5)O6)cc(F)c4C3)sc2n1` [Example 96, 3-amino-N-[(3R)-8-cyano-5-fluoro-7-{9-oxa-3,7-diazabicyclo[3.3.1]nonan-3-yl}-3,4-dihydro-2H-1-benzopyran-3-yl]-6-methylthieno[2,3-b]pyridine-2-carboxamide], for which the IC50 lay in the range of 50 to 200 nM.
For the compound `Cc1ccc2c(N)c(C(=O)N[C@H]3COc4cc(N5CC6CCC(C5)N6)c(F)cc4C3)sc2n1` [Example 104, 3-amino-N-[(3R)-7-{3,8-diazabicyclo[3.2.1]octan-3-yl]-6-fluoro-3,4-dihydro-2H-1-benzopyran-3-yl]-6-methylthieno[2,3-b]pyridine-2-carboxamide], the IC50 lay within 1 to 50 nM.
On to `CO[C@H]1CN(c2ccc3c(c2)CC[C@H](NC(=O)c2sc4nc(C)cnc4c2N)C3)C[C@@H]1N` [Example 130, 7-amino-N-[(2S)-6-[(3S,4S)-3-amino-4-methoxypyrrolidin-1-yl]-1,2,3,4-tetrahydronaphthalen-2-yl]-3-methylthieno[2,3-b]pyrazine-6-carboxamide], for which the concentration for half-maximal inhibition (IC50) was 200 to 2000 nM.
Then `CO[C@@H]1CCN(c2ccc3c(c2)OC[C@H](NC(=O)c2sc4nc(C)ccc4c2N)C3)C[C@H]1N` [Example 120, 3-amino-N-[(3R)-7-[(3R,4R)-3-amino-4-methoxypiperidin-1-yl]-3,4-dihydro-2H-1-benzopyran-3-yl]-6-methylthieno[2,3-b]pyridine-2-carboxamide], with 200 to 2000 nM.
Then `Cc1ccc2c(N)c(C(=O)N[C@H]3COc4cc([C@H]5C[C@H](N)C5)ccc4C3)sc2n1` [Example 124, 3-amino-6-methyl-N-[(3R)-7-[(1r,3r)-3-aminocyclobutyl]-3,4-dihydro-2H-1-benzopyran-3-yl]thieno[2,3-b]pyridine-2-carboxamide], with 200 to 2000 nM; and `Cc1cnc2c(N)c(C(=O)N[C@H]3COc4cc(N5CC6CCC(C5)N6)c(F)c(F)c4C3)sc2n1` [Example 97, 7-amino-N-[(3R)-7-{3,8-diazabicyclo[3.2.1]octan-3-yl]-5,6-difluoro-3,4-dihydro-2H-1-benzopyran-3-yl]-3-methylthieno[2,3-b]pyrazine-6-carboxamide], with 1 to 50 nM.
With `Cc1ccc2c(N)c(C(=O)N[C@H]3CCc4c(ccc(N5CC6CNCC(C5)O6)c4F)C3)sc2n1` [Example 99, 3-amino-N-[(2S)-5-fluoro-6-{9-oxa-3,7-diazabicyclo[3.3.1]nonan-3-yl}-1,2,3,4-tetrahydronaphthalen-2-yl]-6-methylthieno[2,3-b]pyridine-2-carboxamide], the IC50 lay in the range of 1 to 50 nM.
Then `Cc1ccc2c(N)c(C(=O)N[C@H]3COc4cc(N5C[C@@H](N)[C@@H](C(F)F)C5)ccc4C3)sc2n1` [Example 168, 3-amino-N-[(3R)-7-[(3S,4S)-3-amino-4-(difluoromethyl)pyrrolidin-1-yl]-3,4-dihydro-2H-1-benzopyran-3-yl]-6-methylthieno[2,3-b]pyridine-2-carboxamide], with 200 to 2000 nM; and `Cc1ccc2c(N)c(C(=O)N[C@H]3COc4cc(N5C[C@@H]6NCCO[C@@H]6C5)ccc4C3)sc2n1` [Example 153, N-[(3R)-7-[(4aS,7aR)-octahydropyrrolo[3,4-b]morpholin-6-yl]-3,4-dihydro-2H-1-benzopyran-3-yl]-3-amino-6-methylthieno[2,3-b]pyridine-2-carboxamide], with 200 to 2000 nM; and `Cc1ccc2c(N)c(C(=O)N[C@H]3COc4cc(N5C[C@@H]6C[C@H]5CN6)c(F)c(F)c4C3)sc2n1` [Example 112, 3-amino-N-[(3R)-7-[(1S,4S)-2,5-diazabicyclo[2.2.1]heptan-2-yl]-5,6-difluoro-3,4-dihydro-2H-1-benzopyran-3-yl]-6-methylthieno[2,3-b]pyridine-2-carboxamide], with 200 to 2000 nM.
As for `CO[C@H]1CN(c2ccc3c(c2)CC[C@H](NC(=O)c2sc4nc(C)ccc4c2N)C3)C[C@@H]1N` [Example 116, 3-amino-N-[(2S)-6-[(3S,4S)-3-amino-4-methoxypyrrolidin-1-yl}-1,2,3,4-tetrahydronaphthalen-2-yl]-6-methylthieno[2,3-b]pyridine-2-carboxamide], the IC50 lay within 200 to 2000 nM.
Then `Cc1cc(C)c2c(N)c(C(=O)N[C@H]3COc4cc(N5CCNCC5)c(F)c(F)c4C3)sc2n1` [Example 159, 3-amino-N-[(3R)-5,6-difluoro-7-(piperazin-1-yl)-3,4-dihydro-2H-1-benzopyran-3-yl]-4,6-dimethylthieno[2,3-b]pyridine-2-carboxamide], with more than 2000 nM.
Turning to `Cc1ccc2c(N)c(C(=O)N[C@H]3COc4cc(N5C[C@H](OC6CC6)[C@@H](N)C5)ccc4C3)sc2n1` [Example 140, 3-amino-N-[(3R)-7-[(3S,4S)-3-amino-4-cyclopropoxypyrrolidin-1-yl]-3,4-dihydro-2H-1-benzopyran-3-yl]-6-methylthieno[2,3-b]pyridine-2-carboxamide], the IC50 was in the range of 200 to 2000 nM.
Regarding `COC[C@H]1CN(c2ccc3c(c2)OC[C@H](NC(=O)c2sc4nc(C)ccc4c2N)C3)CCN1` [Example 157, 3-amino-N-[(3R)-7-[(3R)-3-(methoxymethyl)piperazin-1-yl]-3,4-dihydro-2H-1-benzopyran-3-yl]-6-methylthieno[2,3-b]pyridine-2-carboxamide], the IC50 lay within 200 to 2000 nM.
Consider `Cc1ccc2c(N)c(C(=O)N[C@H]3CCc4c(ccc(N5CC6CNCC(C5)O6)c4C#N)C3)sc2n1` [Example 102, 3-amino-N-[(2S)-5-cyano-6-{9-oxa-3,7-diazabicyclo[3.3.1]nonan-3-yl}-1,2,3,4-tetrahydronaphthalen-2-yl]-6-methylthieno[2,3-b]pyridine-2-carboxamide], for which the IC50 is 50 to 200 nM.
The same measure for `CCO[C@@H]1CN(c2ccc3c(c2)OC[C@H](NC(=O)c2sc4nc(C)ccc4c2N)C3)C[C@@H]1N` [Example 151, 3-amino-N-[(3R)-7-[(3S,4R)-3-amino-4-ethoxypyrrolidin-1-yl]-3,4-dihydro-2H-1-benzopyran-3-yl]-6-methylthieno[2,3-b]pyridine-2-carboxamide]: 200 to 2000 nM; for `Cc1ccc2c(N)c(C(=O)N[C@H]3COc4nc(N5CC6CCC(C5)N6)ccc4C3)sc2n1` [Example 173, 3-amino-N-[(3R)-7-{3,8-diazabicyclo[3.2.1]octan-3-yl]-2H,3H,4H-pyrano[2,3-b]pyridin-3-yl]-6-methylthieno[2,3-b]pyridine-2-carboxamide]: 200 to 2000 nM.
As for `Cc1ccc2c(N)c(C(=O)N[C@H]3COc4cc(N5C[C@H](N)[C@H](C(F)F)C5)ccc4C3)sc2n1` [Example 167, 3-amino-N-[(3R)-7-[(3R,4R)-3-amino-4-(difluoromethyl)pyrrolidin-1-yl]-3,4-dihydro-2H-1-benzopyran-3-yl]-6-methylthieno[2,3-b]pyridine-2-carboxamide], the IC50 was 200 to 2000 nM.
In the case of `CO[C@H]1CN(c2cc(F)c3c(c2)CC[C@H](NC(=O)c2sc4nc(C)ccc4c2N)C3)C[C@@H]1N` [Example 136, 3-amino-N-[(2S)-6-[(3S,4S)-3-amino-4-methoxypyrrolidin-1-yl]-8-fluoro-1,2,3,4-tetrahydronaphthalen-2-yl]-6-methylthieno[2,3-b]pyridine-2-carboxamide], the IC50 was more than 2000 nM.
For `COc1nc2sc(C(=O)N[C@H]3CCc4cc(N5C[C@H](OC)[C@@H](N)C5)ccc4C3)c(N)c2cc1F` [Example 135, 3-amino-N-[(2S)-6-[(3S,4S)-3-amino-4-methoxypyrrolidin-1-yl]-1,2,3,4-tetrahydronaphthalen-2-yl]-5-fluoro-6-methoxythieno[2,3-b]pyridine-2-carboxamide], the IC50 was more than 2000 nM.

The record behind these values is patent US11524966B1 (Valo Early Discovery, Inc., priority 2017, dated 2022).
